# In ChEMBL document CHEMBL1143191, “The synthesis and biological evaluation of a range of novel functionalized benzopyrans as potential potassium channel activators” (2008):
# Key:
# Format in all cases: functional, Thorax
# Thoracic [1] = test: Vasorelaxation activity against phenylephrine-stimulated contraction in rat thoracic tissue at 10 uM; parameters: scale not given: the % may be the effect or the level left
# Thoracic [2] = test: Vasorelaxation activity against phenylephrine-stimulated contraction in rat thoracic tissue at 40 uM; parameters: scale not given: the % may be the effect or the level left
# Thoracic [3] = test: Vasorelaxation activity against phenylephrine-stimulated contraction in rat thoracic tissue assessed as time taken for relaxation at 10 uM
# Thoracic [4] = test: Vasorelaxation activity against phenylephrine-stimulated contraction in rat thoracic tissue assessed as time taken for relaxation at 40 uM
# Thoracic [5] = test: Vasorelaxation activity against phenylephrine-stimulated contraction in rat thoracic tissue at 20 uM in presence of glibenclamide; parameters: scale not given: the % may be the effect or the level left
# Thoracic [6] = test: Vasorelaxation activity against phenylephrine-stimulated contraction in rat thoracic tissue at 1 uM; parameters: scale not given: the % may be the effect or the level left
compound,measurement,setting,value
"CC(C)(F)[C@@H]1COc2c(F)cccc2C1C#Cc1ccccc1 (single isomer, unassigned)",Activity,Thoracic [1],28%
same,Activity,Thoracic [2],92%
same,Time,Thoracic [3],43 min
same,Time,Thoracic [4],21 min
same,Activity,Thoracic [5],30%
"CC(C)(F)[C@@H]1COc2ccc(F)cc2C1C#Cc1ccccc1 (single isomer, unassigned)",Activity,Thoracic [1],36%
same,Activity,Thoracic [2],83%
same,Time,Thoracic [3],55 min
same,Time,Thoracic [4],33 min
same,Activity,Thoracic [5],44%
"CC(C)(F)[C@@H]1COc2ccc([N+](=O)[O-])cc2C1C#Cc1ccccc1 (single isomer, unassigned)",Activity,Thoracic [1],43%
same,Activity,Thoracic [2],88%
same,Time,Thoracic [3],40 min
same,Time,Thoracic [4],30 min
same,Activity,Thoracic [5],30%
CC1(C)Oc2ccc(C#N)cc2[C@@H](N2CCCC2=O)[C@@H]1O [CROMAKALIM],Activity,Thoracic [6],56%
same,Activity,Thoracic [1],72%
"CC(C)(F)[C@@H]1COc2c(F)cc(F)cc2C1C#Cc1ccccc1 (single isomer, unassigned)",Activity,Thoracic [1],20%
same,Activity,Thoracic [2],65%
same,Time,Thoracic [3],41 min
same,Time,Thoracic [4],24 min
